From ChEMBL document CHEMBL3046956, “Photosynthetic Electron Transport Inhibitory Activity of 2-Aralkylamino-4-methyl-6-trifluoromethyl-1, 3, 5-triazine Derivatives” (J Pestic Sci, 1999) come the findings set out here.

Structures are written as SMILES.

Experiment [1] in a line: Potency index, ratio of pI50 for simazine to pI50 for test compound against photosynthetic electron transport in Spinacia oleracea (spinach) thylakoids using oxygen electrode by Boger method.
Experiment [2] in a line: Inhibition of photosynthetic electron transport in Spinacia oleracea (spinach) thylakoids using oxygen electrode by Boger method.

As to `Cc1nc(NCc2ccc(F)cc2)nc(C(F)(F)F)n1`, the Ratio in experiment [1] is 10.

On to `Cc1nc(NCc2ccccc2Cl)nc(C(F)(F)F)n1`, for which the pI50 in experiment [2] is listed as 5.95. Consider `Cc1nc(NCc2ccc(Br)cc2)nc(C(F)(F)F)n1`, for which the Ratio in experiment [1] worked out at 10. `Cc1nc(NCc2ccc(Cl)cc2)nc(C(F)(F)F)n1` gave a pI50 in experiment [2] of 6.98. Further, the Ratio in experiment [1] stood at 10. Take `Cc1nc(NCc2ccc([N+](=O)[O-])cc2)nc(C(F)(F)F)n1`: in experiment [1], the Ratio was 10. In the case of `Cc1nc(NCc2ccc(C(F)(F)F)cc2)nc(C(F)(F)F)n1`, the Ratio in experiment [1] amounted to 10.
